PubChem BioAssay AID1259407 (Chemical Carcinogenesis Research Information System (CCRIS), 2018)
The source made the active and inactive calls. How the calls were made is not given here.

Tested on: CCRIS mutagenicity, Ames/micronucleus/aberration tests
Experiment: CCRIS mutagenicity studies
[1] = Test System: AMES SALMONELLA TYPHIMURIUM, Strain/Indicator: TA100, Metabolic Activation: RAT, LIVER, S-9, PCB, Method: PREINCUBATION
[2] = Test System: UDS RAT HEPATOCYTES, Strain/Indicator: THY INCORP, Metabolic Activation: NONE, Method: AUTORADIOGRAPHY
[3] = Test System: AMES SALMONELLA TYPHIMURIUM, Strain/Indicator: TA100, Metabolic Activation: NONE, Method: STANDARD PLATE
[4] = Test System: AMES SALMONELLA TYPHIMURIUM, Strain/Indicator: TA100, Metabolic Activation: RAT, LIVER, S-9, KANECLOR 500, Method: STANDARD PLATE
[5] = Test System: AMES SALMONELLA TYPHIMURIUM, Strain/Indicator: TA100, Metabolic Activation: NONE, Method: PREINCUBATION

C[C@H]1C(=O)O[C@@H]2CCN3CC=C(COC(=O)[C@](C)(O)[C@]1(C)O)[C@H]23
mutagenic call (Test System: AMES SALMONELLA TYPHIMURIUM, Strain/Indicator: TA100, Metabolic Activation: HAMSTER, LIVER, S-9, PCB, Method: PREINCUBATION): inactive; negative | mutagenic call [1]: inactive; negative | mutagenic call (Test System: AMES SALMONELLA TYPHIMURIUM, Strain/Indicator: TA100, Metabolic Activation: RAT, LIVER, S-9, SODIUM PHENOBARBITAL AND BETA-NAPHTHOFLAVONE, Method: PREINCUBATION): inactive; negative | mutagenic call (Test System: MOUSE LYMPHOMA, Strain/Indicator: L5178Y (TK+/TK-), Metabolic Activation: NONE, Method: MICROWELL): active; positive | mutagenic call (Test System: MOUSE LYMPHOMA, Strain/Indicator: L5178Y (TK+/TK-), Metabolic Activation: S-9, Method: MICROWELL): active; positive | mutagenic call (Test System: UDS HAMSTER HEPATOCYTES, Strain/Indicator: THY INCORP, Metabolic Activation: NONE, Method: AUTORADIOGRAPHY): active; positive | mutagenic call (Test System: UDS MOUSE HEPATOCYTES, Strain/Indicator: THY INCORP, Metabolic Activation: NONE, Method: AUTORADIOGRAPHY): active; positive | mutagenic call [2]: active; positive

C#C[C@]1(O)C=C[C@H]2[C@@H]3CCC4=CC(=O)CC[C@@H]4[C@H]3CC[C@@]21CC
mutagenic call (End Point: IN VIVO MICRONUCLEUS, Test System: BONE MARROW POLYCHROMATIC ERYTHROCYTES, Species: MOUSE, Strain/Sex: NMRI/FEMALE, Route: INTRAGASTRIC): inactive; negative

CC(=O)N(O)c1ccc(Oc2ccc(Cl)cc2Cl)cc1
mutagenic call [3]: inactive; negative | mutagenic call [4]: active; positive

Cc1ccc(S(=O)(=O)OC[C@H]2CO2)cc1
mutagenic call [5]: active; positive | mutagenic call [3]: active; positive | mutagenic call [1]: active; positive

Cc1ccccc1O
mutagenic call (Test System: Ames Salmonella typhimurium, Strain/Indicator: TA98, Metabolic Activation: Hamster, Liver, S-9, Aroclor 1254 (10%), Method: Preincubation): inactive; negative | mutagenic call (Test System: Ames Salmonella typhimurium, Strain/Indicator: TA98, Metabolic Activation: None, Method: Preincubation): inactive; negative | mutagenic call (Test System: Ames Salmonella typhimurium, Strain/Indicator: TA98, Metabolic Activation: Rat, Liver, S-9, Aroclor 1254 (10%), Method: Preincubation): inactive; negative | mutagenic call (Test System: Ames Salmonella typhimurium, Strain/Indicator: TA100, Metabolic Activation: Hamster, Liver, S-9, Aroclor 1254 (10%), Method: Preincubation): inactive; negative | mutagenic call (Test System: Ames Salmonella typhimurium, Strain/Indicator: TA100, Metabolic Activation: None, Method: Preincubation): inactive; negative | mutagenic call (Test System: Ames Salmonella typhimurium, Strain/Indicator: TA100, Metabolic Activation: Rat, Liver, S-9, Aroclor 1254 (10%), Method: Preincubation): inactive; negative | mutagenic call (Test System: Ames Salmonella typhimurium, Strain/Indicator: TA1535, Metabolic Activation: Hamster, Liver, S-9, Aroclor 1254 (10%), Method: Preincubation): inactive; negative | mutagenic call (Test System: Ames Salmonella typhimurium, Strain/Indicator: TA1535, Metabolic Activation: None, Method: Preincubation): inactive; negative | mutagenic call (Test System: Ames Salmonella typhimurium, Strain/Indicator: TA1535, Metabolic Activation: Rat, Liver, S-9, Aroclor 1254 (10%), Method: Preincubation): inactive; negative | mutagenic call (Test System: Ames Salmonella typhimurium, Strain/Indicator: TA1537, Metabolic Activation: Hamster, Liver, S-9, Aroclor 1254 (10%), Method: Preincubation): inactive; negative | mutagenic call (Test System: Ames Salmonella typhimurium, Strain/Indicator: TA1537, Metabolic Activation: None, Method: Preincubation): inactive; negative | mutagenic call (Test System: Ames Salmonella typhimurium, Strain/Indicator: TA1537, Metabolic Activation: Rat, Liver, S-9, Aroclor 1254 (10%), Method: Preincubation): inactive; negative

O=CNc1ccc(Oc2ccccc2)cc1
mutagenic call [3]: inactive; negative | mutagenic call [4]: active; positive

Nc1ccccc1C(=O)OC/C=C/c1ccccc1
mutagenic call (End Point: IN VITRO CHROMOSOMAL ABERRATIONS, Test System: CHINESE HAMSTER LUNG FIBROBLAST CELLS (CHL/IU), Metabolic Activation: NONE): inactive; negative | mutagenic call (End Point: IN VITRO CHROMOSOMAL ABERRATIONS, Test System: CHO CELLS, Metabolic Activation: NONE): inactive; negative | mutagenic call (End Point: IN VITRO CHROMOSOMAL ABERRATIONS, Test System: CHO CELLS, Metabolic Activation: RAT, LIVER, S-9, AROCLOR 1254): inactive; negative | mutagenic call (Test System: AMES SALMONELLA TYPHIMURIUM, Strain/Indicator: TA97, Metabolic Activation: HAMSTER, LIVER, S-9, AROCLOR 1254 (10%), Method: PREINCUBATION): inactive; negative | mutagenic call (Test System: AMES SALMONELLA TYPHIMURIUM, Strain/Indicator: TA97, Metabolic Activation: HAMSTER, LIVER, S-9, AROCLOR 1254 (30%), Method: PREINCUBATION): inactive; negative | mutagenic call (Test System: AMES SALMONELLA TYPHIMURIUM, Strain/Indicator: TA97, Metabolic Activation: NONE, Method: PREINCUBATION): inactive; negative | mutagenic call (Test System: AMES SALMONELLA TYPHIMURIUM, Strain/Indicator: TA97, Metabolic Activation: RAT, LIVER, S-9, AROCLOR 1254 (10%), Method: PREINCUBATION): inactive; negative | mutagenic call (Test System: AMES SALMONELLA TYPHIMURIUM, Strain/Indicator: TA97, Metabolic Activation: RAT, LIVER, S-9, AROCLOR 1254 (30%), Method: PREINCUBATION): inactive; negative | mutagenic call (Test System: AMES SALMONELLA TYPHIMURIUM, Strain/Indicator: TA98, Metabolic Activation: HAMSTER, LIVER, S-9, AROCLOR 1254 (10%), Method: PREINCUBATION): inactive; negative | mutagenic call (Test System: AMES SALMONELLA TYPHIMURIUM, Strain/Indicator: TA98, Metabolic Activation: HAMSTER, LIVER, S-9, AROCLOR 1254 (30%), Method: PREINCUBATION): inactive; negative | mutagenic call (Test System: AMES SALMONELLA TYPHIMURIUM, Strain/Indicator: TA98, Metabolic Activation: NONE, Method: PREINCUBATION): inactive; negative | mutagenic call (Test System: AMES SALMONELLA TYPHIMURIUM, Strain/Indicator: TA98, Metabolic Activation: RAT, LIVER, S-9, AROCLOR 1254 (10%), Method: PREINCUBATION): inactive; negative | mutagenic call (Test System: AMES SALMONELLA TYPHIMURIUM, Strain/Indicator: TA98, Metabolic Activation: RAT, LIVER, S-9, AROCLOR 1254 (30%), Method: PREINCUBATION): inactive; negative | mutagenic call (Test System: AMES SALMONELLA TYPHIMURIUM, Strain/Indicator: TA100, Metabolic Activation: HAMSTER, LIVER, S-9, AROCLOR 1254 (10%), Method: PREINCUBATION): inactive; negative | mutagenic call (Test System: AMES SALMONELLA TYPHIMURIUM, Strain/Indicator: TA100, Metabolic Activation: HAMSTER, LIVER, S-9, AROCLOR 1254 (30%), Method: PREINCUBATION): inactive; negative | mutagenic call [5]: inactive; negative | mutagenic call (Test System: AMES SALMONELLA TYPHIMURIUM, Strain/Indicator: TA100, Metabolic Activation: RAT, LIVER, S-9, AROCLOR 1254 (10%), Method: PREINCUBATION): inactive; negative | mutagenic call (Test System: AMES SALMONELLA TYPHIMURIUM, Strain/Indicator: TA100, Metabolic Activation: RAT, LIVER, S-9, AROCLOR 1254 (30%), Method: PREINCUBATION): inactive; negative | mutagenic call (Test System: AMES SALMONELLA TYPHIMURIUM, Strain/Indicator: TA1535, Metabolic Activation: HAMSTER, LIVER, S-9, AROCLOR 1254 (10%), Method: PREINCUBATION): inactive; negative | mutagenic call (Test System: AMES SALMONELLA TYPHIMURIUM, Strain/Indicator: TA1535, Metabolic Activation: HAMSTER, LIVER, S-9, AROCLOR 1254 (30%), Method: PREINCUBATION): inactive; negative | mutagenic call (Test System: AMES SALMONELLA TYPHIMURIUM, Strain/Indicator: TA1535, Metabolic Activation: NONE, Method: PREINCUBATION): inactive; negative | mutagenic call (Test System: AMES SALMONELLA TYPHIMURIUM, Strain/Indicator: TA1535, Metabolic Activation: RAT, LIVER, S-9, AROCLOR 1254 (10%), Method: PREINCUBATION): inactive; negative | mutagenic call (Test System: AMES SALMONELLA TYPHIMURIUM, Strain/Indicator: TA1535, Metabolic Activation: RAT, LIVER, S-9, AROCLOR 1254 (30%), Method: PREINCUBATION): inactive; negative | mutagenic call (Test System: E. COLI, Strain/Indicator: WP2 UVRA, Metabolic Activation: HAMSTER, LIVER, S-9, AROCLOR 1254, Method: STANDARD PLATE): inactive; negative | mutagenic call (Test System: E. COLI, Strain/Indicator: WP2 UVRA, Metabolic Activation: NONE, Method: STANDARD PLATE): inactive; negative | mutagenic call (Test System: Mouse lymphoma, Strain/Indicator: L5178Y (tk+/tk-), Metabolic Activation: None, Method: Suspension/plate): inactive; negative | mutagenic call (Test System: Mouse lymphoma, Strain/Indicator: L5178Y (tk+/tk-), Metabolic Activation: Rat, Liver, S-9, Aroclor 1254, Method: Suspension/plate): active; equivocal (previous evaluation positive) | mutagenic call (Test System: UDS RAT HEPATOCYTES, Strain/Indicator: BROMODEOXYURIDINE INCORP, Metabolic Activation: NONE, Method: FLOW CYTOMETRIC ANALYSIS): inactive; negative | mutagenic call [2]: inactive; negative

[O]=[V]([OH])([OH])[OH]
mutagenic call (End Point: IN VIVO MICRONUCLEUS, Test System: POLYCHROMATIC ERYTHROCYTES, Species: MOUSE, Strain/Sex: (102/E1 X C3H/E1)F1/MALE, Route: IP INJECTION): inactive; negative
